# From US20230372357A1, “STABLE PHARMACEUTICAL COMPOSITION” (SANTEN PHARMACEUTICAL CO., LTD., priority 2020, published 2023)
# Experiments:
# [1] = intracameral injection; cited from earlier work
# [2] = Finding at development stage: compound dissolved as aqueous composition; type: physicochemical
hydrolysis of the compound in an aqueous composition ([2]; dissolved and prepared in the form of an aqueous composition),Compound,intraocular pressure [1],degradation of the compound under light irradiation ([2]; under the light irradiation)
,"CCN(CC)CC1CCCCN1CC(=O)N1c2ccccc2C(=O)Nc2cccnc21 (stereo not drawn) [AFDX0116, 11-[2-[2-[(diethylamino)methyl]-1-piperidinyl]acetyl]-5,11-dihydro-6H-pyrido[2,3-b][1,4]benzodiazepin-6-one]",decreased,
susceptible to hydrolysis,"CCN(CC)C[C@H]1CCCCN1CC(=O)N1c2ccccc2C(=O)Nc2cccnc21 [AFDX0250, (+)-11-[2-[2-[(diethylamino)methyl]-1-piperidinyl]acetyl]-5,11-dihydro-6H-pyrido[2,3-b][1,4]benzodiazepin-6-one]",,easily degraded under the light irradiation
